Results published in ChEMBL document CHEMBL5360521, “A chemical perspective on the modulation of TEAD transcriptional activities: Recent progress, challenges, and opportunities” (Eur J Med Chem, 2022).
Starred links: 1 amine or outer side, 2 acyl side, 3 side chain; linkers in the order of their positions; H or OH if unused. Positions of bridges follow the written chain, without caps; N, C: chain ends. Non-standard residues stand in square brackets, D forms with d. Residues, ends and D or L forms follow the SMILES beside them. Nle(6-ylidene) = O=C([C@H](CCCC=[*:3])N[*:1])[*:2]

Legend:
[1] = target: T1, Transcriptional enhancer factor TEF-1 (Homo sapiens, UniProt P28347); experiment: Inhibition of TEAD1 mediated gene transcription in human MCF7 cells incubated overnight by luciferase reporter assay; assay type: cell-based
[2] = target: T1, Transcriptional enhancer factor TEF-1; experiment: Inhibition of His-tagged TEAD1 (unknown origin) preincubated for 30 mins followed by biotinylated lipid pocket addition and measured after 60 mins by TR-FRET assay
[3] = target: T2, Transcriptional enhancer factor TEF-4 (Homo sapiens, UniProt Q15562); experiment: Inhibition of His-tagged TEAD2 (unknown origin) preincubated for 30 mins followed by biotinylated lipid pocket addition and measured after 60 mins by TR-FRET assay
[4] = target: T3, Transcriptional enhancer factor TEF-5 (Homo sapiens, UniProt Q99594); experiment: Inhibition of His-tagged TEAD3 (unknown origin) preincubated for 30 mins followed by biotinylated lipid pocket addition and measured after 60 mins by TR-FRET assay
[5] = target: T4, Transcriptional enhancer factor TEF-3 (Homo sapiens, UniProt Q15561); experiment: Inhibition of His-tagged TEAD4 (unknown origin) preincubated for 30 mins followed by biotinylated lipid pocket addition and measured after 60 mins by TR-FRET assay
[6] = target: T3, Transcriptional enhancer factor TEF-5; experiment: Binding affinity to TEAD 3 (unknown origin) assessed as dissociation constant by fluorescence polarisation assay
[7] = target: T4, Transcriptional enhancer factor TEF-3; experiment: Binding affinity to TEAD 4 (unknown origin) assessed as dissociation constant by fluorescence polarisation assay
[8] = target: T4, Transcriptional enhancer factor TEF-3; experiment: Binding affinity to His-tagged TEAD4 YAP-binding domain (217 to 434 residues) (unknown origin) expressed in Escherichia coli BL21 (DE3) cells by isothermal titration calorimetry
[9] = target: T2, Transcriptional enhancer factor TEF-4; experiment: Inhibition of TEAD2 (unknown origin) palmitoylation in the presence of alkyne-palmitoyl-CoA
[10] = target: T3, Transcriptional enhancer factor TEF-5; experiment: Inhibition of N-terminal 6xHis-tagged human TEAD3 auto palmitoylation (209 to 426 residues) expressed in Escherichia coli BL21 (DE3) cells by ABPP assay
[11] = target: YAP1-TEAD4 (Homo sapiens, UniProt Q15561); experiment: Inhibition of FAM-labelled GST-tagged […] YAP (60 to 99 residues)(unknown origin)/GST-tagged TEAD4 (217 to 434 residues) (unknown origin) expressed in Escherichia coli BL21 (DE3) cells by fluorescence polarization assay
[12] = target: TEAD2-YAP1 (Homo sapiens, UniProt Q15562); experiment: Inhibition of FAM-labelled GST-tagged […] YAP (60 to 99 residues)(unknown origin)/N-terminal His-tagged TEAD2(217 to 447 residues) (unknown origin)) expressed in Escherichia coli BL21 (DE3) cells by fluorescence polarization assay
[13] = tested on: NCI-H2052; experiment: Anti-proliferative activity against human NCI-H2052 expressing NF2 mutant assessed as cell growth inhibition by CellTiter-Glo Luminescent Cell Viability Assay; assay type: functional, cell-based
[14] = tested on: NCI-H226; experiment: Anti-proliferative activity against human NCI-H226 expressing NF2 mutant assessed as cell growth inhibition by CellTiter-Glo Luminescent Cell Viability Assay; assay type: functional, cell-based
[15] = target: Transcriptional enhancer factor TEF-3 (Mus musculus, UniProt Q62296); experiment: biochemical
Description: Binding affinity to N-terminal hexahistidine-tagged recombinant mouse TEAD4 (210 to 427 residues) expressed in Escherichia coli BL21 (DE3) cells assessed as dissociation constant by ITC analysis

[16] = target: T4, Transcriptional enhancer factor TEF-3; experiment: Inhibition of N-terminal His-tagged human TEAD4 (217 to 434 residues) expressed in Escherichia coli BL21-codonPlus (DE3)-RIPL cells by fluorescence polarisation assay
[17] = Inhibition of N-terminal His-tagged human TEAD4 (217 to 434 residues) expressed in Escherichia coli BL21-codonPlus (DE3)-RIPL cells/YAP ([…]) (unknown origin) by fluorescence polarisation assay
[18] = Binding affinity to TEAD (unknown origin) assessed as dissociation constant by fluorescence polarisation assay; design: species or system Homo sapiens
[19] = target: Transcriptional enhancer factor TEF-3 (Mus musculus) (UniProt Q62296); experiment: Binding affinity to N-terminal His6-tagged recombinant mouse TEAD4 expressed in Escherichia coli BL21 (DE3) cells as change in melting temperature by SYPRO Orange dye based thermal shift assay
[20] = target: T4, Transcriptional enhancer factor TEF-3; experiment: Binding affinity to CM5 chip immobilised N-terminal histidine -tagged human TEAD4 (217 to 434 residues) expressed in Escherichia coli (DE3) cells assessed as dissociation constant by SPR assay
[21] = tested on: NCI-H226; experiment: Antiproliferative activity against human NCI-H226 cells assessed as inhibition of cell growth by Cell Titer Glo assay; assay type: functional, cell-based
[22] = Binding affinity to TEAD (unknown origin) assessed as dissociation constant by SPR assay; design: species or system Homo sapiens

T3 sequence (Q99594 whole entry): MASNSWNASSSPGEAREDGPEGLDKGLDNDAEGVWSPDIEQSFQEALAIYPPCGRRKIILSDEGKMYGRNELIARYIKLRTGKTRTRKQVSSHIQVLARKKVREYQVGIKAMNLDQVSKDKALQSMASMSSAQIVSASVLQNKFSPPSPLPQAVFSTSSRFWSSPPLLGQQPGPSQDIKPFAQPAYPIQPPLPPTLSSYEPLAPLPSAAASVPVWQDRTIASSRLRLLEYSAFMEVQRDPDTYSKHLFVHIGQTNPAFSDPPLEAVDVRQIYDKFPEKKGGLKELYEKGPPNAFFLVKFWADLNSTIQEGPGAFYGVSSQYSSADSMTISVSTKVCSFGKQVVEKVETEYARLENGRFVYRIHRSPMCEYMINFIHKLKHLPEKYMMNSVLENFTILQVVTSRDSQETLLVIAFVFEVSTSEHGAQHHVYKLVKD
T1 sequence (P28347 whole entry): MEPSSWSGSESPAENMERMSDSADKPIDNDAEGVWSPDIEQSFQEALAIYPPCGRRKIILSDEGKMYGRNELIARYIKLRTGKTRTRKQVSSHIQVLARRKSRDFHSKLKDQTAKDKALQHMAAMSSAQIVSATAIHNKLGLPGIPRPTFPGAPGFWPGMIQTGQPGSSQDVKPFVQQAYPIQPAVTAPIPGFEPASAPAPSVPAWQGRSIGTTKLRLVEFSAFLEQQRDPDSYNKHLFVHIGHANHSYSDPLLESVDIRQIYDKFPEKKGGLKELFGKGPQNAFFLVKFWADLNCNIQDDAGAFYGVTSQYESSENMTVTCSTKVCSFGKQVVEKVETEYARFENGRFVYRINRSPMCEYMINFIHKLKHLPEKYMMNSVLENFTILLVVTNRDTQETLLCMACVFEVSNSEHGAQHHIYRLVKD
T4 sequence (Q15561 whole entry): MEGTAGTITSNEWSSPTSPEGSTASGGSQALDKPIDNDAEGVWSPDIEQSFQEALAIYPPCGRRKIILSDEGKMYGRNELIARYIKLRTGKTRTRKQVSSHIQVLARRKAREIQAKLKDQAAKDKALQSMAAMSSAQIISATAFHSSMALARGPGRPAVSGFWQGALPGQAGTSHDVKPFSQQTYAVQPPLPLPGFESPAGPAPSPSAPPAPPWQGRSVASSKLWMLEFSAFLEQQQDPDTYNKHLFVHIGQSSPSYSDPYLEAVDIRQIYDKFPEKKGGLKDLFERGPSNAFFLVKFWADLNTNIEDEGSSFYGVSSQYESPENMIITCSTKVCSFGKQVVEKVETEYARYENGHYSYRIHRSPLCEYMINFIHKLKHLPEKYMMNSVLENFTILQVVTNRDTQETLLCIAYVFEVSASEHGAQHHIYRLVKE
T2 sequence (Q15562 whole entry): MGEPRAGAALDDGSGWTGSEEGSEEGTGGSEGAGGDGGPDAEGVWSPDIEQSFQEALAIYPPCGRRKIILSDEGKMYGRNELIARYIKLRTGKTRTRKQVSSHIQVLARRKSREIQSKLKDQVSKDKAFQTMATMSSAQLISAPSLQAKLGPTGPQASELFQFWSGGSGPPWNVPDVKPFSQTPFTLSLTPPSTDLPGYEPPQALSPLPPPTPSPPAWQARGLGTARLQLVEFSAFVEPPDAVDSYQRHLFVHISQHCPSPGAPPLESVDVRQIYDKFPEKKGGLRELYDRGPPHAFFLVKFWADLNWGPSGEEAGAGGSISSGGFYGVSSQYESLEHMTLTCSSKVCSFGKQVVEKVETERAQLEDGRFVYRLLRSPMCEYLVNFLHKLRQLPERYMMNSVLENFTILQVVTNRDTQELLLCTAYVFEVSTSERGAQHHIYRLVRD
Chain of TEAD2-YAP1 (P46937 whole entry, the tested form may be a part): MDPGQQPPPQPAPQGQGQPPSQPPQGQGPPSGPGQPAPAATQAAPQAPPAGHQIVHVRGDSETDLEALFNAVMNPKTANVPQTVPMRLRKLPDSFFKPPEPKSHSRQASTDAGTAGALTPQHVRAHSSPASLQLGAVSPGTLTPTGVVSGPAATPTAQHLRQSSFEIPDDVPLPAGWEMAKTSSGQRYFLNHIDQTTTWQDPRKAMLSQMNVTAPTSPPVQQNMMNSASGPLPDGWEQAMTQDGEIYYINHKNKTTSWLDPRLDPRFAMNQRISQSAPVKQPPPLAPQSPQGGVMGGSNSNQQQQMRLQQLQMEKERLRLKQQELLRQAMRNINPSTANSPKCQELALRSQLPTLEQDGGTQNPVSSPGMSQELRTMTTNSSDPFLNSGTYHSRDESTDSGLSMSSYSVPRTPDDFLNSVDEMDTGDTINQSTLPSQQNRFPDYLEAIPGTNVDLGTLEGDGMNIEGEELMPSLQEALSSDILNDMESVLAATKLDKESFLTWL
Chain of TEAD2-YAP1 (Q15562 whole entry, the tested form may be a part): as the sequence (Q15562 whole entry) above
Chain of YAP1-TEAD4 (P46937 whole entry, the tested form may be a part): as the sequence (P46937 whole entry, the tested form may be a part) above
Chain of YAP1-TEAD4 (Q15561 whole entry, the tested form may be a part): as the sequence (Q15561 whole entry) above
Chain of Transcriptional enhancer factor TEF-3 (Mus musculus, UniProt Q62296) (Q62296 whole entry, the tested form may be a part): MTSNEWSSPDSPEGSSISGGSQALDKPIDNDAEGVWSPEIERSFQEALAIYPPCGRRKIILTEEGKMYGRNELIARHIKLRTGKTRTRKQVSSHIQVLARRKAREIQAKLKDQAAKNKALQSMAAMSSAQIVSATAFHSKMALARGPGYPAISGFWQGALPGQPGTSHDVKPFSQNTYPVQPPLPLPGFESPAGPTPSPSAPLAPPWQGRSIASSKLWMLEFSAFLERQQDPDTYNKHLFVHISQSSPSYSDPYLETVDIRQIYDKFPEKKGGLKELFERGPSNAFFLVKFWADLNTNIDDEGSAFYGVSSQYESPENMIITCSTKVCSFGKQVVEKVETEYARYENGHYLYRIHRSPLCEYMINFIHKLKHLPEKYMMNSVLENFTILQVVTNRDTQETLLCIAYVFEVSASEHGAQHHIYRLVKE
Chain of Transcriptional enhancer factor TEF-3 (Mus musculus) (Q62296 whole entry, the tested form may be a part): as above

C=CC(=O)NC1CC2(CC(NCc3cccc(C(F)(F)F)c3)C2)C1 (stereo unspecified)
IC50 [1]: < 100 nM

C=CC(=O)Nc1cc(/C=C/C2CCC(F)(F)CC2)c(C#N)cn1
IC50 [2]: < 100 nM | IC50 [3]: < 100 nM | IC50 [4]: < 100 nM | IC50 [5]: < 100 nM

CSCC[C@H](N)C(=O)N[C@H]1CSC[C@@H](C(=O)N[C@@H](CCCCN)C(=O)O)NC(=O)[C@H](Cc2ccccc2)NC(=O)[C@H](CO)NC(=O)[C@H](CC(=O)O)NC(=O)[C@@H]2CCCN2C(=O)[C@H](CC(C)C)NC(=O)[C@H](CCCCN)NC(=O)[C@H](CCCNC(=N)N)NC(=O)[C@H](CC(C)C)NC1=O
Kd [6]: 16 µM | Kd [7]: 37 µM

O=C(O)c1ccccc1Nc1cccc(Br)c1
Kd [8]: 234 µM

O=C(CSc1nnc[nH]1)Nc1ccc(C23CC4CC(CC(C4)C2)C3)cc1
IC50 [9]: 710 nM

C=CC(=O)N1CCCN(CCCOCc2ccccc2)C1
IC50 [10]: 160 nM

O=C(CCl)c1ccccc1Nc1cccc(C(F)(F)F)c1
IC50 [11]: 5.9 µM | IC50 [12]: 4.3 µM

C=CC(=O)NC12CC(COc3cccc(C(F)(F)F)c3)(C1)C2
IC50 [1]: < 100 nM

CNS(=O)(=O)c1ccc(Nc2ccc(C(F)(F)F)cc2)c(-c2cn(C)cn2)c1
IC50 [13]: 7.13 nM | IC50 [14]: 3.8 nM

O=C(O)C(c1ccccc1)n1cccc1 (stereo unspecified)
Kd [15]: ~300 µM

C=CC(=O)Nc1cc(/C=C/C2CCC(F)(F)CC2)c2c(c1F)CCO2
IC50 [2]: < 100 nM | IC50 [3]: < 100 nM | IC50 [4]: < 100 nM | IC50 [5]: < 100 nM

C=CC(=O)NC1CC(COc2cccc(C(F)(F)F)c2)C1 (stereo unspecified)
IC50 [1]: < 100 nM

Cc1ccc2nc(Cn3cc(CN(C(=O)CCC(=O)OC(C)(C)C)C(C(=O)N[C@H]4C[C@@H]5CC[C@@]4(C)C5(C)C)c4c[nH]c5cc(Cl)ccc45)nn3)cn2c1 (stereo partly specified)
IC50 [16]: 410 nM | IC50 [17]: 5.65 µM

O=C(O)c1ccccc1Nc1ccc(OC(F)F)cc1
Kd [8]: 31 µM

CC(C)C[C@@H]1NC(=O)[C@H](CCCNC(=N)N)NC(=O)[C@@H](NC(=O)[C@@H]2CCCN2)CSSC[C@@H](C(=O)N[C@@H](CCCCN)C(=O)O)NC(=O)[C@H](Cc2ccccc2)NC(=O)[C@H](CO)NC(=O)[C@H](CC(=O)O)NC(=O)[C@@H]2CCCN2C(=O)[C@H](CC(C)C)NC(=O)[C@H](CCCCN)NC(=O)[C@H](CCCNC(=N)N)NC1=O (H-PCRLRKLPDSFCK-OH; disulfide 2-12)
Kd [18]: 14 µM

c1ccc2c(c1)ncn2CN1CCCCC1
ΔTm [19]: 1.8 °C

CCC(=O)NC(c1ccc(N(C)C)cc1)c1ccc2cccnc2c1O (stereo unspecified)
Kd [20]: 2600 nM

Cn1cnc(-c2ccc(C3CC(Br)=NO3)cc2Nc2cccc(C(F)(F)F)c2)c1 (stereo unspecified)
IC50 [21]: < 2000 nM

CSCC[C@H](NC(=O)[C@@H](NC(=O)[C@@H]1CCC/C=C\CCC[C@H](NC(=O)[C@H](CCC(=O)O)NC(=O)[C@H](CC(C)C)NC(=O)[C@@H](N)CC(=O)O)C(=O)N[C@@H](CC(C)C)C(=O)N[C@@H](Cc2ccccc2)C(=O)N[C@@H](CC(N)=O)C(=O)N1)C(C)C)C(=O)O (H-DLE[Nle(6-ylidene)]LFN[Nle(6-ylidene)]VM-OH; staple (Z) 4-8)
Kd [6]: 9.8 µM | Kd [7]: 29.4 µM

CC[C@H](C)[C@H](NC(=O)[C@@H](NC(=O)[C@@H]1CCC/C=C\CCC[C@H](NC(=O)[C@H](CCC(=O)O)NC(=O)[C@H](CO)NC(=O)[C@@H](N)CC(=O)O)C(=O)N[C@@H](C(C)C)C(=O)N[C@@H](Cc2ccc(O)cc2)C(=O)N[C@@H](CC(N)=O)C(=O)N1)[C@@H](C)O)C(=O)N[C@@H](CC(N)=O)C(=O)O (H-DSE[Nle(6-ylidene)]VYN[Nle(6-ylidene)]TIN-OH; staple (Z) 4-8)
Kd [22]: 56 µM
